Values of other authors as cited in patent publication EP1783518B1, “Functionalized dyes and use thereof in ophthalmic lens material” (Ophtec B.V., priority 2005, dated 2007).
Values after ≈ are worked out from the molar mass of the structure shown.

Row | SMILES | solubility in water | solubility in EGME (ethylene glycol monomethyl ether (EGME))
1 | Cc1cc(N=Nc2ccc(N=Nc3ccc(S(=O)(=O)O)cc3)cc2)cc(C(=O)O)c1O.[Na+] [Mordant Orange 10] | 40 mg/mL | 
2 | Cc1cc(N=Nc2ccc(N=Nc3ccccc3)cc2)ccc1O [Disperse Yellow 7, 4-[[p-(phenylazo)phenyl]azo]-o-cresol] |  | 80 mg/mL (≈ 253 mM)
3 | O=C(O)c1cc(N=Nc2ccc(N=Nc3ccc(S(=O)(=O)[O-])cc3)cc2)ccc1[O-].[Na+].[Na+] [Mordant Orange 6] | 40 mg/mL | 
